17 molecules from PubChem BioAssay AID330 (DTP/NCI, 2004) can be followed below.

Values joined by “and” are separate entries in the source; they are usually repeats but may differ in a detail not shown here. Equal values may be shown once. Inconclusive results and toxic doses are left out.

The subject of this assay is P388 leukemia ip, CD2F1 mice, survival T/C. As to the kind of experiment: NCI In Vivo Anticancer Drug Screen. Data for tumor model P388 Leukemia (intraperitoneal) in CD2F1 (CDF1) mice. The note with it: higher = longer survival. The protocol: The antitumor activity of compounds was measured in mice bearing transplantable tumors. Survival or tumor size were measured and the results are expressed as the measurement made in the treated group (T) divided by the measurement made in the vehicle treated control group (C). The tumor model used in this assay is P388 Leukemia (intraperitoneal) in CD2F1 (CDF1) mice

[1] abbreviates: endpoint: median survival time, dose: 100.0 mg/kg/injection, schedule: Q01DX009 (ip), vehicle: Klucel (hydroxypropylcellulose) (HPC).
Setting [2] is: endpoint: median survival time, dose: 200.0 mg/kg/injection, schedule: Q01DX009 (ip), vehicle: Klucel (hydroxypropylcellulose) (HPC).
Setting [3] is: endpoint: median survival time, dose: 12.5 mg/kg/injection, schedule: Q04DX003 (ip), vehicle: saline with Tween-80.
The mark [4] stands for this setting: endpoint: median survival time, dose: 25.0 mg/kg/injection, schedule: Q04DX003 (ip), vehicle: saline with Tween-80.
The mark [5] stands for this setting: endpoint: median survival time, dose: 50.0 mg/kg/injection, schedule: Q01DX009 (ip), vehicle: saline.
Where [6] appears, read: endpoint: median survival time, dose: 100.0 mg/kg/injection, schedule: Q01DX009 (ip), vehicle: saline.
Where [7] appears, read: endpoint: median survival time, dose: 50.0 mg/kg/injection, schedule: Q01DX009 (ip), vehicle: saline with Tween-80.
Where [8] appears, read: endpoint: median survival time, dose: 100.0 mg/kg/injection, schedule: Q01DX009 (ip), vehicle: saline with Tween-80.

In the case of `COc1ccc(-c2csc(=[N+]3CCCCC3)s2)cc1`, the T/C is 100 % of control (endpoint: median survival time, dose: 3.13 mg/kg/injection, schedule: Q01DX009 (ip), vehicle: water); 105 % of control and 110 % of control (endpoint: median survival time, dose: 6.25 mg/kg/injection, schedule: Q01DX009 (ip), vehicle: water).

`COC(=O)C1CCC=CC1Sc1ccccc1` (stereo unspecified): the T/C is 105 % of control (endpoint: median survival time, dose: 50.0 mg/kg/injection, schedule: Q01DX009 (ip), vehicle: Klucel (hydroxypropylcellulose) (HPC)); 106 % of control under setting [1]; 112 % of control under setting [2].

For `NNC(=O)C(O)C(O)C(=O)NN` (stereo unspecified), the T/C was 97 % of control (endpoint: median survival time, dose: 30.0 mg/kg/injection, schedule: Q01DX005 (ip), vehicle: saline); 103 % of control (endpoint: median survival time, dose: 30.0 mg/kg/injection, schedule: Q01DX009 (ip), vehicle: saline); 100 % of control (endpoint: median survival time, dose: 60.0 mg/kg/injection, schedule: Q01DX005 (ip), vehicle: saline); 97 % of control (endpoint: median survival time, dose: 60.0 mg/kg/injection, schedule: Q01DX009 (ip), vehicle: saline); 94 % of control (endpoint: median survival time, dose: 120.0 mg/kg/injection, schedule: Q01DX005 (ip), vehicle: saline); 105 % of control (endpoint: median survival time, dose: 120.0 mg/kg/injection, schedule: Q01DX009 (ip), vehicle: saline).

On to `COc1ccc2c(c1OC(C)=O)-c1cc(OC(C)=O)cc3c1C(C2)N(C(=O)CN(CCCl)CCCl)CC3` (stereo unspecified), for which the T/C is 150 % of control (endpoint: median survival time, dose: 6.25 mg/kg/injection, schedule: Q04DX003 (ip), vehicle: other); 170 % of control (endpoint: median survival time, dose: 12.5 mg/kg/injection, schedule: Q04DX003 (ip), vehicle: other); 170 % of control (endpoint: median survival time, dose: 25.0 mg/kg/injection, schedule: Q04DX003 (ip), vehicle: DMSO); 185 % of control (endpoint: median survival time, dose: 25.0 mg/kg/injection, schedule: Q04DX003 (ip), vehicle: other); 94 % of control (endpoint: median survival time, dose: 50.0 mg/kg/injection, schedule: Q04DX003 (ip), vehicle: DMSO); 95 % of control (endpoint: median survival time, dose: 50.0 mg/kg/injection, schedule: Q04DX003 (ip), vehicle: other).

Take `NC1(C(=O)O)CCCc2ccc(N(CCCl)CCCl)cc21` (stereo unspecified): the T/C is 165 % of control (endpoint: median survival time, dose: 5.0 mg/kg/injection, schedule: Q04DX003 (ip), vehicle: saline); 218 % of control and 197 % of control and 201 % of control (endpoint: median survival time, dose: 6.25 mg/kg/injection, schedule: Q01DX009 (ip), vehicle: saline with Tween-80); 180 % of control (endpoint: median survival time, dose: 10.0 mg/kg/injection, schedule: Q04DX003 (ip), vehicle: saline); 272 % of control and 210 % of control and 215 % of control (endpoint: median survival time, dose: 12.5 mg/kg/injection, schedule: Q01DX009 (ip), vehicle: saline with Tween-80); 222 % of control under setting [3]; 90 % of control and 102 % of control and 121 % of control (endpoint: median survival time, dose: 25.0 mg/kg/injection, schedule: Q01DX009 (ip), vehicle: saline with Tween-80). Besides, the T/C is, setting by setting: under setting [4], 272 % of control; (endpoint: median survival time, dose: 313.0 micrograms/kg/injection, schedule: Q04DX003 (ip), vehicle: saline with Tween-80) 100 % of control; (endpoint: median survival time, dose: 625.0 micrograms/kg/injection, schedule: Q04DX003 (ip), vehicle: saline with Tween-80) 109 % of control; (endpoint: median survival time, dose: 1250.0 micrograms/kg/injection, schedule: Q04DX003 (ip), vehicle: saline with Tween-80) 113 % of control.

Turning to `O=c1c(N=Nc2ccccc2)c(O)n(-c2ccccc2Cl)c(=S)n1-c1ccccc1`, the T/C runs as follows: (endpoint: median survival time, dose: 25.0 mg/kg/injection, schedule: Q01DX001 (ip), vehicle: Klucel (hydroxypropylcellulose) (HPC)) 97 % of control; (endpoint: median survival time, dose: 50.0 mg/kg/injection, schedule: Q01DX001 (ip), vehicle: Klucel (hydroxypropylcellulose) (HPC)) 104 % of control; (endpoint: median survival time, dose: 100.0 mg/kg/injection, schedule: Q01DX001 (ip), vehicle: Klucel (hydroxypropylcellulose) (HPC)) 92 % of control.

For the molecule `O=S(=O)(Nc1ccccn1)c1ccc(NC2OC(CO)C(O)C(O)C2O)cc1` (stereo unspecified), the T/C was 103 % of control (endpoint: median survival time, dose: 50.0 mg/kg/injection, schedule: Q01DX005 (ip), vehicle: saline); 98 % of control (endpoint: median survival time, dose: 100.0 mg/kg/injection, schedule: Q01DX005 (ip), vehicle: saline); 103 % of control (endpoint: median survival time, dose: 200.0 mg/kg/injection, schedule: Q01DX005 (ip), vehicle: saline).

Regarding `Cc1ncc(Cn2c(C)c(CCO)sc2=S)c(N)n1`, the T/C was 99 % of control under setting [5]; 101 % of control under setting [6]; 108 % of control (endpoint: median survival time, dose: 200.0 mg/kg/injection, schedule: Q01DX009 (ip), vehicle: saline).

In the case of `CCOC(=O)c1ccc(NC(=O)CSc2nc3ccccc3o2)cc1`, the T/C under setting [5] was 114 % of control and the T/C under setting [6] is 93 % of control.

Turning to `COC(=O)c1c([As](C)C)n[n]([Sn]([CH3])([CH3])[CH3])c1C(=O)OC`, the T/C is 88 % of control (endpoint: median survival time, dose: 6.25 mg/kg/injection, schedule: Q04DX003 (ip), vehicle: saline) and 99 % of control (endpoint: median survival time, dose: 12.5 mg/kg/injection, schedule: Q04DX003 (ip), vehicle: saline).

On to `O=C(Cc1ccccc1)C1=S=C2SCCCN2C1=O`, for which the T/C (endpoint: median survival time, dose: 100.0 mg/kg/injection, schedule: Q01DX001 (ip), vehicle: saline with Tween-80) is 105 % of control; the T/C (endpoint: median survival time, dose: 200.0 mg/kg/injection, schedule: Q01DX001 (ip), vehicle: saline with Tween-80) was 97 % of control; the T/C (endpoint: median survival time, dose: 400.0 mg/kg/injection, schedule: Q01DX001 (ip), vehicle: saline with Tween-80) was 92 % of control.

Turning to `O=S(=O)(O)c1ccc(-c2ccc(S(=O)(=O)O)cc2)cc1` (tested in a mixture with another compound), the T/C is, setting by setting: (endpoint: mean survival time, dose: 20.0 mg/kg/injection, schedule: Q01DX009 (ip), vehicle: saline) 253 % of control; (endpoint: mean survival time, dose: 40.0 mg/kg/injection, schedule: Q01DX009 (ip), vehicle: saline) 232 % of control; (endpoint: median survival time, dose: 12.5 mg/kg/injection, schedule: Q01DX009 (ip), vehicle: saline sonified) 154 % of control; (endpoint: median survival time, dose: 20.0 mg/kg/injection, schedule: Q01DX009 (ip), vehicle: saline) 231 % of control; (endpoint: median survival time, dose: 25.0 mg/kg/injection, schedule: Q01DX009 (ip), vehicle: saline sonified) 150 % of control; (endpoint: median survival time, dose: 33.0 mg/kg/injection, schedule: Q04DX003 (ip), vehicle: saline) 165 % of control. Also, the T/C (endpoint: median survival time, dose: 40.0 mg/kg/injection, schedule: Q01DX009 (ip), vehicle: saline) is 272 % of control; the T/C (endpoint: median survival time, dose: 50.0 mg/kg/injection, schedule: Q01DX009 (ip), vehicle: saline sonified) is 272 % of control; the T/C (endpoint: median survival time, dose: 50.0 mg/kg/injection, schedule: Q04DX003 (ip), vehicle: saline sonified) is 181 % of control; the T/C (endpoint: median survival time, dose: 50.0 mg/kg/injection, schedule: Q04DX003 (ip), vehicle: saline) was 169 % of control; the T/C (endpoint: median survival time, dose: 75.0 mg/kg/injection, schedule: Q04DX003 (ip), vehicle: saline) was 221 % of control.

Consider `ClB1NB(Cl)NB(Cl)N1`, for which the T/C reads like this: under setting [1], 108 % of control and 93 % of control; under setting [2], 108 % of control and 86 % of control; (endpoint: median survival time, dose: 400.0 mg/kg/injection, schedule: Q01DX009 (ip), vehicle: Klucel (hydroxypropylcellulose) (HPC)) 109 % of control and 95 % of control.

With `CC(C)(C)NC(=O)C(F)(F)C(F)(F)C(F)(F)C(=O)NC(C)(C)C`, the T/C is, setting by setting: (endpoint: median survival time, dose: 100.0 mg/kg/injection, schedule: Q04DX003 (ip), vehicle: saline) 91 % of control; (endpoint: median survival time, dose: 200.0 mg/kg/injection, schedule: Q04DX003 (ip), vehicle: saline) 100 % of control; (endpoint: median survival time, dose: 400.0 mg/kg/injection, schedule: Q04DX003 (ip), vehicle: saline) 99 % of control.

On to `NCc1c(Cl)c(Cl)c(CN)c(Cl)c1Cl`, for which the T/C runs as follows: under setting [7], 91 % of control; (endpoint: median survival time, dose: 50.0 mg/kg/injection, schedule: Q04DX003 (ip), vehicle: saline with Tween-80) 91 % of control; under setting [8], 91 % of control; (endpoint: median survival time, dose: 100.0 mg/kg/injection, schedule: Q04DX003 (ip), vehicle: saline with Tween-80) 91 % of control; (endpoint: median survival time, dose: 200.0 mg/kg/injection, schedule: Q04DX003 (ip), vehicle: saline with Tween-80) 87 % of control.

With `COc1ccc(N=C=S)cc1N=C=S`, the T/C is, setting by setting: (endpoint: median survival time, dose: 6.25 mg/kg/injection, schedule: Q04DX003 (ip), vehicle: saline with Tween-80) 95 % of control; under setting [3], 104 % of control; under setting [4], 104 % of control.

With `Cc1ccc(-c2nc3ccccc3c(=O)n2/N=C/c2ccccc2O)cc1`, the T/C runs as follows: under setting [7], 101 % of control; under setting [8], 100 % of control; (endpoint: median survival time, dose: 200.0 mg/kg/injection, schedule: Q01DX009 (ip), vehicle: saline with Tween-80) 93 % of control.
